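Test compounds were applied to cells in 96-well plates for 48 hours at 5 doses. At the GI50, growth is halved. TGI: concentration producing complete growth inhibition.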
Legend:
Assay in all cases: NCI anticancer screen, dose series, 48 h
RXF 393 renal = system: RXF 393 renal
OVCAR-5 ovarian = system: OVCAR-5 ovarian
MALME-3M melanoma = system: MALME-3M melanoma
MDA-MB-231 breast = system: MDA-MB-231 breast
A549 NSCLC = system: A549 NSCLC
TK-10 renal = system: TK-10 renal
HOP-92 NSCLC = system: HOP-92 NSCLC
HOP-62 NSCLC = system: HOP-62 NSCLC
KM12 colon = system: KM12 colon
DU-145 prostate = system: DU-145 prostate

| SMILES | GI50 (RXF 393 renal) | TGI (RXF 393 renal) | GI50 (OVCAR-5 ovarian) | TGI (OVCAR-5 ovarian) | GI50 (MALME-3M melanoma) | TGI (MALME-3M melanoma) | GI50 (MDA-MB-231 breast) | TGI (MDA-MB-231 breast) | GI50 (A549 NSCLC) | TGI (A549 NSCLC) | GI50 (TK-10 renal) | TGI (TK-10 renal) | GI50 (HOP-92 NSCLC) | TGI (HOP-92 NSCLC) | GI50 (HOP-62 NSCLC) | TGI (HOP-62 NSCLC) | GI50 (KM12 colon) | TGI (KM12 colon) | GI50 (DU-145 prostate) | TGI (DU-145 prostate) |
| --- | --- | --- | --- | --- | --- | --- | --- | --- | --- | --- | --- | --- | --- | --- | --- | --- | --- | --- | --- | --- |
| Cc1cc(S(=O)(=O)Nc2nc3cscc3c(=O)n2Cc2ccccc2)c(S)cc1Cl | 36.2 µM | > 100 µM | 87.1 µM | > 100 µM | 28.7 µM | > 100 µM | 34 µM | > 100 µM | 42.4 µM | > 100 µM | 35 µM | > 100 µM | > 100000 nM | > 100 µM | 16.5 µM | 39.3 µM | 21.9 µM | 74.7 µM | 41 µM | > 100 µM |
| C=C(c1ccc2nc(NC(=O)OC)[nH]c2c1)c1cccs1 | – | > 100 µM | – | > 100 µM | – | > 100 µM | – | > 100 µM | – | > 100 µM | – | > 100 µM | – | > 31 µM | – | > 77.4 µM | – | > 100 µM | – | > 100 µM |
| CCCNNC(=O)/C=C/c1ccc(CNCCc2c(C)[nH]c3ccccc23)cc1 | 0.011 µM | 0.0479 µM | 0.0116 µM | 0.191 µM | 0.015 µM | 1.22 µM | 0.0708 µM | 3.74 µM | 0.0689 µM | 2.02 µM | 0.00506 µM | 0.133 µM | 6.93 nM | 0.0744 µM | 0.031 µM | 0.785 µM | 0.0485 µM | 0.966 µM | 0.0322 µM | 3.35 µM |
